Results reported in ChEMBL document CHEMBL1155809, “Design, synthesis, and antihepatocellular carcinoma activity of nitric oxide releasing derivatives of oleanolic acid” (J Med Chem, 2008).
The source made the active and inactive calls. The rule behind the calls is not given here.

Experiments:
HEK293 [1] = experiment: Cytotoxicity against human HEK293 cells assessed as levels of nitric oxide production at 100 uM after 30 to 300 mins by colorimetric assay; type: functional, cell-based
MCF7 [2] = experiment: Cytotoxicity against human MCF7 cells assessed as cell death by lactate dehydrogenase release assay; type: functional, cell-based
[3] = Cytotoxicity against human Hep3B cells assessed as cell death at 0.001 uM after 24 hrs by lactate dehydrogenase release assay; type: functional, Hep 3B2
HepG2 [4] = experiment: Cytotoxicity against human HepG2 cells assessed as cell death at 0.001 uM after 24 hrs by lactate dehydrogenase release assay; type: functional
HepG2 [5] = experiment: Cytotoxicity against human HepG2 cells assessed as cell death at 0.1 uM after 24 hrs by lactate dehydrogenase release assay; type: functional
[6] = Cytotoxicity against human Hep3B cells assessed as cell death at 1 uM after 24 hrs by lactate dehydrogenase release assay; type: functional, Hep 3B2
PC-3 [7] = experiment: Cytotoxicity against human PC3 cells assessed as levels of nitric oxide production at 100 uM after 30 to 300 mins by colorimetric assay; type: functional, cell-based
HepG2 [8] = experiment: Cytotoxicity against human HepG2 cells assessed as cell death at 1 uM after 24 hrs by lactate dehydrogenase release assay; type: functional
[9] = Cytotoxicity against human Hep3B cells assessed as cell death at 0.1 uM after 24 hrs by lactate dehydrogenase release assay; type: functional, Hep 3B2
HeLa [10] = experiment: Cytotoxicity against human HeLa cells assessed as levels of nitric oxide production at 100 uM after 30 to 300 mins by colorimetric assay; type: functional, cell-based
HepG2 [11] = experiment: Cytotoxicity against human HepG2 cells assessed as cell death at 0.01 uM after 24 hrs by lactate dehydrogenase release assay; type: functional
HeLa [12] = experiment: Cytotoxicity against human HeLa cells assessed as cell death by lactate dehydrogenase release assay; type: functional, cell-based
HepG2 [13] = experiment: Cytotoxicity against human HepG2 cells assessed as levels of nitric oxide production at 100 uM after 30 to 300 mins by colorimetric assay; type: functional, cell-based
[14] = Cytotoxicity against human Hep3B cells assessed as cell death at 0.01 uM after 24 hrs by lactate dehydrogenase release assay; type: functional, Hep 3B2
HEK293 [15] = experiment: Cytotoxicity against HEK293 cells assessed as cell death by lactate dehydrogenase release assay; type: functional, cell-based; details: Homo sapiens
PC-3 [16] = experiment: Cytotoxicity against human PC3 cells assessed as cell death by lactate dehydrogenase release assay; type: functional, cell-based
Hep 3B2 = experiment: Cytotoxicity against human Hep3B cells assessed as levels of nitric oxide production at 100 uM after 30 to 300 mins by colorimetric assay; type: functional, cell-based
MCF7 [17] = experiment: Cytotoxicity against human MCF7 cells assessed as levels of nitric oxide production at 100 uM after 30 to 300 mins by colorimetric assay; type: functional, cell-based
[18] = Antitumor activity against human Hep3B cells xenografted in non-obese diabetic SCID mouse assessed as reduction in tumor weight at 15 mg/kg, ip after 35 days; type: functional, Hep 3B2; details: route intraperitoneal
[19] = Antitumor activity against human Hep3B cells xenografted in non-obese diabetic SCID mouse assessed as reduction in tumor size at 15 mg/kg, ip after 35 days; type: functional, Hep 3B2; details: route intraperitoneal
Mus musculus = experiment: Toxicity in BALB/c mouse at 15 to 100 mg/kg, ip daily for 3 days assessed after 15 days; type: organism-based; design: dose 15-100 mg/kg, route intraperitoneal; details: in vivo, 360 h

Row | SMILES | Activity (HEK293 [1]) | Activity (MCF7 [2]) | Activity [3] [%] | Activity (HepG2 [4]) [%] | Activity (HepG2 [5]) [%] | Activity [6] [%] | Activity (PC-3 [7]) | Activity (HepG2 [8]) [%] | Activity [9] [%] | Activity (HeLa [10]) | Activity (HepG2 [11]) [%] | Activity (HeLa [12]) | Activity (HepG2 [13]) | Activity [14] [%] | Activity (HEK293 [15]) | Activity (PC-3 [16]) | Activity (Hep 3B2) | Activity (MCF7 [17]) | Activity [18] [g] | Activity [19] [mm3] | further results
1 | CC1(C)CC[C@]2(C(=O)O)CC[C@]3(C)C(=CC[C@@H]4[C@@]5(C)CC[C@H](OC(=O)CCC(=O)OCCOCCOc6no[n+]([O-])c6S(=O)(=O)c6ccccc6)C(C)(C)[C@@H]5CC[C@]43C)[C@@H]2C1 | inactive | inactive | 0 | 2.7 | 67.96 | 88.65 | inactive | 95.63 | 56.43 | inactive | 17.32 | inactive | Active | 9.78 | inactive | inactive | Active | inactive | – | – | –
2 | CC(CCOc1no[n+]([O-])c1S(=O)(=O)c1ccccc1)OC(=O)[C@]12CCC(C)(C)C[C@H]1C1=CC[C@@H]3[C@@]4(C)CC[C@H](O)C(C)(C)[C@@H]4CC[C@@]3(C)[C@]1(C)CC2 (stereo partly specified) | inactive | inactive | 0 | 0 | 55.11 | 92.18 | inactive | 89.21 | 63.51 | inactive | 6.67 | inactive | Active | 11.05 | inactive | inactive | Active | inactive | 0.332 | 289 | Activity (Mus musculus): Non-toxic
3 | CC1(C)CC[C@]2(C(=O)O)CC[C@]3(C)C(=CC[C@@H]4[C@@]5(C)CC[C@H](OC(=O)CCC(=O)NCCOc6no[n+]([O-])c6S(=O)(=O)c6ccccc6)C(C)(C)[C@@H]5CC[C@]43C)[C@@H]2C1 | inactive | inactive | 0 | 0 | 13.01 | 66.21 | inactive | 74.53 | 16.34 | inactive | 8.51 | inactive | Active | 5.26 | inactive | inactive | Active | inactive | – | – | –
4 | CC(CCOc1no[n+]([O-])c1S(=O)(=O)c1ccccc1)OC(=O)CCC(=O)O[C@H]1CC[C@]2(C)[C@H]3CC=C4[C@@H]5CC(C)(C)CC[C@]5(C(=O)O)CC[C@@]4(C)[C@]3(C)CC[C@H]2C1(C)C (stereo partly specified) | inactive | inactive | 4.7 | 1.7 | 93.5 | 100 | inactive | 100 | 92.4 | inactive | 13.34 | inactive | Active | 14.23 | inactive | inactive | Active | inactive | 0.262 | 232 | Activity (Mus musculus): Non-toxic
5 | CC1(C)CC[C@]2(C(=O)O)CC[C@]3(C)C(=CC[C@@H]4[C@@]5(C)CC[C@H](O)C(C)(C)[C@@H]5CC[C@]43C)[C@@H]2C1 [OLEANOLIC_ACID] | inactive | inactive | 0 | 0 | 0 | 0 | inactive | 0 | 0 | inactive | 0 | inactive | Active | 0 | inactive | inactive | Active | inactive | 0.961 | 668 | Activity (Mus musculus): Non-toxic
6 | CC1(C)CC[C@]2(C(=O)O)CC[C@]3(C)C(=CC[C@@H]4[C@@]5(C)CC[C@H](OC(=O)CCC(=O)OCc6cccc(Oc7no[n+]([O-])c7S(=O)(=O)c7ccccc7)c6)C(C)(C)[C@@H]5CC[C@]43C)[C@@H]2C1 | inactive | inactive | 0 | 0 | 0 | 0 | inactive | 0 | 0 | inactive | 0 | inactive | Active | 0 | inactive | inactive | Active | inactive | – | – | –
7 | C[C@H](CCC(=O)O)[C@H]1CC[C@H]2[C@@H]3[C@@H](O)C[C@@H]4C[C@H](O)CC[C@]4(C)[C@H]3CC[C@]12C [URSODIOL] | inactive | inactive | 0 | 0 | 0 | 0 | inactive | 0 | 0 | inactive | 0 | inactive | Active | 0 | inactive | inactive | Active | inactive | – | – | –
8 | CC1(C)CC[C@]2(C(=O)O)CC[C@]3(C)C(=CC[C@@H]4[C@@]5(C)CC[C@H](OC(=O)CCC(=O)OCCCCOc6no[n+]([O-])c6S(=O)(=O)c6ccccc6)C(C)(C)[C@@H]5CC[C@]43C)[C@@H]2C1 | inactive | inactive | 0 | 2.6 | 56.35 | 100 | inactive | 98.16 | 61.18 | inactive | 10.96 | inactive | Active | 7.52 | inactive | inactive | Active | inactive | – | – | –
9 | CC1(C)CC[C@]2(C(=O)O)CC[C@]3(C)C(=CC[C@@H]4[C@@]5(C)CC[C@H](OC(=O)CCC(=O)OCC#CCOc6no[n+]([O-])c6S(=O)(=O)c6ccccc6)C(C)(C)[C@@H]5CC[C@]43C)[C@@H]2C1 | inactive | inactive | 0 | 0 | 13.68 | 72.51 | inactive | 67.41 | 19.61 | inactive | 10.07 | inactive | Active | 8.42 | inactive | inactive | Active | inactive | – | – | –
